Like-named read-outs stand apart in the source and are kept apart here. *1 amine or outer side, *2 acyl side, *3 side chain or, on linkers, in order; H or OH if unused. Where a SMILES comes first, the peptide text is derived from it. Bridges are numbered along the chain shown (N, C = ends). [ ]: non-standard residue; d: D form. The star is where a group is joined. hPhe(3-Cl-4-CF3) = N[C@@H](CCc1ccc(C(F)(F)F)c(Cl)c1)C(=O)O; NPrPhe(4-CF3) = CCCN[C@@H](Cc1ccc(C(F)(F)F)cc1)C(=O)O; X15 = Cc1ccc(C[C@@H](C(=O)[*:2])N(CCC(C)C)[*:1])cc1; NEtPhe(4-Me) = CCN[C@@H](Cc1ccc(C)cc1)C(=O)O; NMeGly(cPent) = CN[C@H](C(=O)O)C1CCCC1; Hyp = O=C(O)[C@@H]1C[C@@H](O)CN1; NMeD = CN[C@@H](CC(=O)O)C(=O)O; NMeL = CN[C@@H](CC(C)C)C(=O)O; X12 = N#CCN(CC(=O)[*:2])[*:1]; Morpholide = C1CN(*)CCO1; NMeA = CN[C@@H](C)C(=O)O; Ac5c = NC1(C(=O)O)CCCC1; Aze = O=C(O)[C@@H]1CCN1; Ac4c = NC1(C(=O)O)CCC1; Sar = CNCC(=O)O
Experiments:
[1] = molecular target: GDP-bound NRAS wild-type protein (Homo sapiens, UniProt P01111); assay: Binding to NRAS by surface plasmon resonance (SPR), Single Cycle Kinetics; conditions: SPR, GDP-bound NRAS wild-type protein vs GDP-bound KRAS wild-type protein
[2] = molecular target: GDP-bound HRAS wild-type protein (Homo sapiens, UniProt P01112); assay: Binding to HRAS by surface plasmon resonance (SPR), Single Cycle Kinetics; conditions: SPR, GDP-bound HRAS wild-type protein vs GDP-bound KRAS wild-type protein
[3] = molecular target: GDP-bound KRAS wild-type protein (Homo sapiens, UniProt P01116); assay: Binding to KRAS by surface plasmon resonance (SPR), Single Cycle Kinetics; conditions: GDP-bound KRAS wild-type protein, read-out: KRAS KD
[4] = SPR, Single Cycle Kinetics, 1:1 binding model
[5] = SPR Single Cycle Kinetics, 1:1 binding model

GDP-bound NRAS wild-type protein, sequence (P01111 whole entry): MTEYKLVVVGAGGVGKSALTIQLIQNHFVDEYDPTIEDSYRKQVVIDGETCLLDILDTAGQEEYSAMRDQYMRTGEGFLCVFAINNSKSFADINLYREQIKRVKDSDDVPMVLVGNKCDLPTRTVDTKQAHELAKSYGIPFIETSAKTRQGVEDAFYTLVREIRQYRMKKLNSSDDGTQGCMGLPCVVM
GDP-bound KRAS wild-type protein, sequence (P01116 whole entry): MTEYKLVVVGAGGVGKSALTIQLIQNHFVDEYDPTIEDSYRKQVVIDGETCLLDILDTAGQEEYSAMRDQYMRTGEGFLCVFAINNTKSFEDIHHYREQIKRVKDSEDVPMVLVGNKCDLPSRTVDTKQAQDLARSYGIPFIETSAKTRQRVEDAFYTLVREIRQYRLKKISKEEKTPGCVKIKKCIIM
GDP-bound HRAS wild-type protein, sequence (P01112 whole entry): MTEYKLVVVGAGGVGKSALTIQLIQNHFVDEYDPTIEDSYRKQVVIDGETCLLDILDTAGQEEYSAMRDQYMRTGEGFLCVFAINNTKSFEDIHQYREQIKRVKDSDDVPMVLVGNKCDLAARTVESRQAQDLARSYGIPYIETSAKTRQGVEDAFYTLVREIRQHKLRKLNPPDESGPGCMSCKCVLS

| Compound | NRAS/KRAS (ratio of KD value for NRAS to KD value for KRAS) [1] | HRAS/KRAS (ratio of KD value for HRAS to KD value for KRAS) [2] | Kd [3, 5] | further results |
| --- | --- | --- | --- | --- |
| CCC[C@H]1C(=O)N[C@@H]([C@@H](C)CC)C(=O)N(C)CC(=O)N(C)[C@H]2C/C=C\CCN(C2=O)[C@@H](Cc2ccc(C(F)(F)F)cc2)C(=O)N(C)CC(=O)N[C@@H](CCc2cc(F)c(C(F)(F)F)c(F)c2)C(=O)N2C[C@H](OCC)C[C@H]2C(=O)NC2(CCC2)C(=O)N(C)[C@@H](C2CCCC2)C(=O)N(C)[C@H](C(=O)N(C)CC)CC(=O)N1C [PP1304, (2S,8S,12R,14S,20S,23S,27S,30S,36S,38Z)-20-cyclopentyl-8-[2-[3,5-difluoro-4-(trifluoromethyl)phenyl]ethyl]-12-ethoxy-N-ethyl-N,4,19,22,26,32,35-heptamethyl-30-[(1S)-1-methylpropyl]-3,6,9,15,18,21,25,28,31,34,42-undecaoxo-27-propyl-2-[[4-(trifluoromethyl)phenyl]methyl]spiro[1,4,7,10,16,19,22,26,29,32,35-undecazatricyclo[34.5.1.0^10,14]dotetracont-38-ene-17,1′-cyclobutane]-23-carboxamide] |  |  |  | NRAS/KRAS (ratio of KD value for NRAS to KD value for KRAS) ([1]; KD ratio class): A (a compound having 10 or more and less than 20 is denoted as A); HRAS/KRAS (ratio of KD value for HRAS to KD value for KRAS) ([2]; KD ratio class): A (a compound having 10 or more and less than 20 is denoted as A); Kd [3, 4]: 0.07 nM |
| CCC[C@H]1C(=O)N[C@@H]([C@@H](C)CC)C(=O)N(C)CC(=O)N(C)[C@H]2C/C=C\CCN(C2=O)[C@@H](Cc2ccc(C(F)(F)F)cc2)C(=O)N(C)CC(=O)N[C@@H](CCc2ccc(Cl)c(Cl)c2)C(=O)N2CCCCC[C@H]2C(=O)NC2(CC(C)(C)C2)C(=O)N(C)[C@@H](C(CC)CC)C(=O)N(C)[C@H](C(=O)N(C)C)CC(=O)N1C [PP3031] | AA (a compound having 20 or more is denoted as AA) | A (a compound having 10 or more and less than 20 is denoted as A) |  | Kd ([3]; SPR, Single Cycle Kinetics): 1.9 nM |
| CC[C@H](C)[C@@H]1NC(=O)[C@H](COC)N(C)C(=O)C[C@@H](C(=O)N2CCOCC2)N(C)C(=O)[C@H](C2CCCC2)N(C)C(=O)C2(CCC2)NC(=O)[C@@H]2CCCN2C(=O)[C@H](CCc2cc(F)c(C(F)(F)F)c(F)c2)NC(=O)CN(C)C(=O)[C@H](Cc2ccc(C(F)(F)F)cc2)N2CCCCC[C@@H](C2=O)N(C)C(=O)[C@@H]2CCN2C1=O [PP0865] | B (a compound having 3 or more and less than 10 is denoted as B) | B (a compound having 3 or more and less than 10 is denoted as B) |  | Kd ([3]; SPR, Single Cycle Kinetics): 1.1 nM |
| CC[C@H](C)[C@@H]1NC(=O)[C@H](CC(C)C)N(C)C(=O)C[C@@H](C(=O)N2CCOCC2)N(C)C(=O)[C@H](C2CCCC2)N(C)C(=O)C2(CCCC2)NC(=O)[C@@H]2CCCN2C(=O)[C@H](CCc2ccc(C(F)(F)F)c(Cl)c2)NC(=O)CN(C)C(=O)[C@H](Cc2ccc(C)cc2)N(CC)C(=O)CN(C)C(=O)CN(C)C1=O [PP0022] ([NMeL]I[Sar][Sar][NEtPhe(4-Me)][Sar][hPhe(3-Cl-4-CF3)]P[Ac5c][NMeGly(cPent)][NMeD]-Morpholide; lactam N-11) | B (a compound having 3 or more and less than 10 is denoted as B) | C (A compound having a KD ratio of 0.1 or more and less than 3 is denoted as C) | 0.18 nM |  |
| CCCN1C(=O)[C@@H]2CCN2C(=O)CN(C)C(=O)[C@H]([C@@H](C)CC)NC(=O)[C@H](CC(C)C)N(C)C(=O)C[C@@H](C(=O)N2CCOCC2)N(C)C(=O)[C@H](C2CCCC2)N(C)C(=O)C2(CCC2)NC(=O)[C@@H]2C[C@@H](OCC)CN2C(=O)[C@H](CCc2ccc(C(F)(F)F)c(Cl)c2)NC(=O)CN(C)C(=O)[C@@H]1Cc1ccc(C(F)(F)F)cc1 [PP0411] ([NMeL]I[Sar][Aze][NPrPhe(4-CF3)][Sar][hPhe(3-Cl-4-CF3)][Hyp](Et)[Ac4c][NMeGly(cPent)][NMeD]-Morpholide; lactam N-11) |  |  | 0.046 nM | NRAS/KRAS (ratio of KD value with respect to NRAS to KD value with respect to KRAS) [1]: C (A compound having a KD ratio of 0.1 or more and less than 3 is denoted as C); HRAS/KRAS (ratio of KD value with respect to HRAS to KD value with respect to KRAS) [2]: C (A compound having a KD ratio of 0.1 or more and less than 3 is denoted as C) |
| CCO[C@@H]1C[C@H]2C(=O)NC3(CCC3)C(=O)N(C)[C@@H](C3CCCC3)C(=O)N(C)[C@H](C(=O)N(C)CCOC)CC(=O)N(C)[C@@H](CC3CC3)C(=O)N[C@@H]([C@@H](C)CC)C(=O)N(C)CC(=O)N(C)[C@H]3C/C=C\CCN(C3=O)[C@@H](Cc3ccc(C(F)(F)F)cc3)C(=O)N(C)CC(=O)N[C@@H](CCc3ccc(C(F)(F)F)c(OC)c3)C(=O)N2C1 [PP1327] |  |  |  | NRAS/KRAS (ratio of KD value for NRAS to KD value for KRAS) ([1]; KD ratio class): A (a compound having 10 or more and less than 20 is denoted as A); HRAS/KRAS (ratio of KD value for HRAS to KD value for KRAS) ([2]; KD ratio class): A (a compound having 10 or more and less than 20 is denoted as A); Kd [3, 4]: 0.11 nM |
| CCO[C@@H]1C[C@H]2C(=O)NC3(CCCC3)C(=O)N(C)[C@@H](C3CCCC3)C(=O)N(C)[C@H](C(=O)N3CCOCC3)CC(=O)N(C)[C@@H](CC(C)C)C(=O)N[C@@H]([C@@H](C)CC)C(=O)N(C)CC(=O)N(C)CC(=O)N(CC)[C@@H](Cc3ccc(C)cc3)C(=O)N(C)CC(=O)N[C@@H](CCc3ccc(C(F)(F)F)c(Cl)c3)C(=O)N2C1 [PP0042] ([NMeL]I[Sar][Sar][NEtPhe(4-Me)][Sar][hPhe(3-Cl-4-CF3)][Hyp](Et)[Ac5c][NMeGly(cPent)][NMeD]-Morpholide; lactam N-11) | C (A compound having a KD ratio of 0.1 or more and less than 3 is denoted as C) | C (A compound having a KD ratio of 0.1 or more and less than 3 is denoted as C) | 0.12 nM |  |
| CCCN1C(=O)[C@@H]2CCN2C(=O)CN(CC#N)C(=O)[C@H]([C@@H](C)CC)NC(=O)[C@H](CC(C)C)N(C)C(=O)C[C@@H](C(=O)N2CCOCC2)N(C)C(=O)[C@H](C2CCCC2)N(C)C(=O)C2(CCCC2)NC(=O)[C@@H]2CCCN2C(=O)[C@H](CCc2ccc(C(F)(F)F)c(Cl)c2)NC(=O)CN(C)C(=O)[C@@H]1Cc1ccc(C(F)(F)F)cc1 [PP0275] ([NMeL]I[X12][Aze][NPrPhe(4-CF3)][Sar][hPhe(3-Cl-4-CF3)]P[Ac5c][NMeGly(cPent)][NMeD]-Morpholide; lactam N-11) | C (A compound having a KD ratio of 0.1 or more and less than 3 is denoted as C) | C (A compound having a KD ratio of 0.1 or more and less than 3 is denoted as C) | 0.3 nM |  |
| CC[C@H](C)[C@@H]1NC(=O)[C@H](CC(C)C)N(C)C(=O)C[C@@H](C(=O)N2CCOCC2)N(C)C(=O)[C@H](C2CCCC2)N(C)C(=O)C2(CCCC2)NC(=O)[C@@H]2CCCN2C(=O)[C@H](CCc2ccc(C(F)(F)F)c(Cl)c2)NC(=O)CN(C)C(=O)[C@H](Cc2ccc(C)cc2)N(CCC(C)C)C(=O)[C@@H]2CCN2C(=O)[C@H](C)N(C)C1=O [PP0086] ([NMeL]I[NMeA][Aze][X15][Sar][hPhe(3-Cl-4-CF3)]P[Ac5c][NMeGly(cPent)][NMeD]-Morpholide; lactam N-11) | C (A compound having a KD ratio of 0.1 or more and less than 3 is denoted as C) | B (a compound having 3 or more and less than 10 is denoted as B) | 0.26 nM |  |
| CCCN1C(=O)CN(C)C(=O)CN(C)C(=O)[C@H]([C@@H](C)CC)NC(=O)[C@H](CC(C)C)N(C)C(=O)C[C@@H](C(=O)N2CCOCC2)N(C)C(=O)[C@H](C2CCCC2)N(C)C(=O)C2(CCC2)NC(=O)[C@@H]2CCCN2C(=O)[C@H](CCc2ccc(C(F)(F)F)c(Cl)c2)NC(=O)CN(C)C(=O)[C@@H]1Cc1ccc(C(F)(F)F)cc1 [PP0197] ([NMeL]I[Sar][Sar][NPrPhe(4-CF3)][Sar][hPhe(3-Cl-4-CF3)]P[Ac4c][NMeGly(cPent)][NMeD]-Morpholide; lactam N-11) | B (a compound having 3 or more and less than 10 is denoted as B) | C (A compound having a KD ratio of 0.1 or more and less than 3 is denoted as C) | 0.13 nM |  |
| CC[C@H](C)[C@@H]1NC(=O)[C@H](CC(C)C)N(C)C(=O)C[C@@H](C(=O)N(C)C)N(C)C(=O)[C@H](C2CCCC2)N(C)C(=O)C2(CCC2)NC(=O)[C@@H]2CC(F)(F)CN2C(=O)[C@H](CCc2cc(F)c(C(F)(F)F)c(F)c2)NC(=O)CN(C)C(=O)[C@H](Cc2ccc(C(F)(F)F)cc2)N2CCCCC[C@@H](C2=O)N(C)C(=O)CN(C)C1=O [PP0466] |  |  | 0.2 nM | NRAS/KRAS (ratio of KD value with respect to NRAS to KD value with respect to KRAS) [1]: B (a compound having 3 or more and less than 10 is denoted as B); HRAS/KRAS (ratio of KD value with respect to HRAS to KD value with respect to KRAS) [2]: B (a compound having 3 or more and less than 10 is denoted as B) |
| CCCN1C(=O)CN(C)C(=O)CN(C)C(=O)[C@H]([C@@H](C)CC)NC(=O)[C@@H]2CCCCCCOc3ccc(cc3)C[C@H]1C(=O)N(C)CC(=O)N[C@@H](CCc1cc(F)c(C(F)(F)F)c(F)c1)C(=O)N1C[C@H](OCC)C[C@H]1C(=O)NC1(CCCC1)C(=O)N(C)[C@@H](C1CCCC1)C(=O)N(C)[C@H](C(=O)N(C)C)CC(=O)N2C [PP0896] | C (A compound having a KD ratio of 0.1 or more and less than 3 is denoted as C) | C (A compound having a KD ratio of 0.1 or more and less than 3 is denoted as C) |  | Kd ([3]; SPR, Single Cycle Kinetics): 0.018 nM |
